From paper PMC5908784, “Extracellular loops 2 and 3 of the calcitonin receptor selectively modify agonist binding and efficacy” (Biochemical Pharmacology, 2018)
Substitutions are numbered along the chain they refer to. Where a SMILES comes first, the peptide text is derived from it. Bridges are numbered along the chain shown (N, C = ends).

Tests used:
Experiment in all cases: IP1 accumulation
Type in all cases: cell-based
Details in all cases: mean ± S.E.M.; for Emax: IP1 maximal response, SEM
[1] = biological target: T1, hCTR R281A (Homo sapiens, UniProt P30988, R281A)
T1 construct: expressed in transfected cells
T1 sequence (P30988 25-474 R281A): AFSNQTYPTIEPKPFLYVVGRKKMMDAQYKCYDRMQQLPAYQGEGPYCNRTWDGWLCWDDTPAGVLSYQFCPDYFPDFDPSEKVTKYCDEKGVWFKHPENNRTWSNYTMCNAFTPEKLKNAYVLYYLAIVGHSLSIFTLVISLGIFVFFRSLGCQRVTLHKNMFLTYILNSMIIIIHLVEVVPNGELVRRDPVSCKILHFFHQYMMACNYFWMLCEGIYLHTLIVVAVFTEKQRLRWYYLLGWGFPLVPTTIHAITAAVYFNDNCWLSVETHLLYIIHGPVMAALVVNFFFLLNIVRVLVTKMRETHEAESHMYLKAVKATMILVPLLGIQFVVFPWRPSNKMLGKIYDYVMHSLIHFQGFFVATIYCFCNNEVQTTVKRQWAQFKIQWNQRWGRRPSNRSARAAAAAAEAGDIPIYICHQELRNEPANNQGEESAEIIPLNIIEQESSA
Summary of the method: (§1)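 HTRF IP-One readout of IP1 after 60 min ligand stimulation (LiCl present), cells seeded overnight. Normalized to 100 μM ATP max response. EC50/Emax via 3-parameter logistic curve fit.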

[2] = biological target: T2, hCTR T280A (Homo sapiens, UniProt P30988, T280A)
T2 construct: expressed in transfected cells
T2 sequence (P30988 25-474 T280A): T1 sequence (P30988 25-474 R281A) with T256A, A257R
Summary of the method: as §1

[3] = biological target: T3, hCTR V283A (Homo sapiens, UniProt P30988, V283A)
T3 construct: expressed in transfected cells
T3 sequence (P30988 25-474 V283A): T1 sequence (P30988 25-474 R281A) with A257R, V259A
Summary of the method: as §1

[4] = biological target: T4, hCTR Y372A (Homo sapiens, UniProt P30988, Y372A)
T4 construct: c-Myc (N); expressed in transfected cells
T4 sequence (P30988 25-474 Y372A): T1 sequence (P30988 25-474 R281A) with A257R, Y348A
Summary of the method: as §1

[5] = biological target: T5, hCTR Y374A (Homo sapiens, UniProt P30988, Y374A)
T5 construct: c-Myc (N); expressed in transfected cells
T5 sequence (P30988 25-474 Y374A): T1 sequence (P30988 25-474 R281A) with A257R, Y350A
Summary of the method: as §1

[6] = IP1, CV1-FlpIn cells, 60 min, LiCl

SMILES: CC(C)C[C@H](NC(=O)[C@H](CCCCN)NC(=O)CNC(=O)[C@H](CC(C)C)NC(=O)[C@@H](NC(=O)[C@@H]1CSSC[C@H](N)C(=O)N[C@@H](CO)C(=O)N[C@@H](CC(N)=O)C(=O)N[C@@H](CC(C)C)C(=O)N[C@@H](CO)C(=O)N[C@@H]([C@@H](C)O)C(=O)N1)C(C)C)C(=O)N[C@@H](CO)C(=O)N[C@@H](CCC(N)=O)C(=O)N[C@@H](CCC(=O)O)C(=O)N[C@@H](CC(C)C)C(=O)N[C@@H](Cc1c[nH]cn1)C(=O)N[C@@H](CCCCN)C(=O)N[C@@H](CC(C)C)C(=O)N[C@@H](CCC(N)=O)C(=O)N[C@H](C(=O)N[C@@H](Cc1ccc(O)cc1)C(=O)N1CCC[C@H]1C(=O)N[C@@H](CCCNC(=N)N)C(=O)N[C@H](C(=O)N[C@@H](CC(N)=O)C(=O)N[C@H](C(=O)NCC(=O)N[C@@H](CO)C(=O)NCC(=O)N[C@H](C(=O)N1CCC[C@H]1C(N)=O)[C@@H](C)O)[C@@H](C)O)[C@@H](C)O)[C@@H](C)O [sCT]
- Emax [1]: 91 ± 6%
- Emax [2]: 119 ± 5%
- Emax [3]: 115 ± 6%
- Emax [4]: 46 ± 4%
- Emax [5]: 102 ± 6%

SMILES: CC[C@H](C)[C@H](NC(=O)[C@H](C)NC(=O)[C@@H](NC(=O)[C@H](CCC(N)=O)NC(=O)[C@@H]1CCCN1C(=O)[C@H](Cc1ccccc1)NC(=O)[C@@H](NC(=O)[C@H](Cc1c[nH]cn1)NC(=O)[C@H](Cc1ccccc1)NC(=O)[C@H](CCCCN)NC(=O)[C@H](CC(N)=O)NC(=O)[C@H](Cc1ccccc1)NC(=O)[C@H](CC(=O)O)NC(=O)[C@H](CCC(N)=O)NC(=O)[C@@H](NC(=O)[C@H](Cc1ccc(O)cc1)NC(=O)[C@@H](NC(=O)CNC(=O)[C@H](CC(C)C)NC(=O)[C@H](CCSC)NC(=O)[C@@H]1CSSC[C@H](N)C(=O)NCC(=O)N[C@@H](CC(N)=O)C(=O)N[C@@H](CC(C)C)C(=O)N[C@@H](CO)C(=O)N[C@@H]([C@@H](C)O)C(=O)N1)[C@@H](C)O)[C@@H](C)O)[C@@H](C)O)[C@@H](C)O)C(=O)NCC(=O)N[C@H](C(=O)NCC(=O)N[C@@H](C)C(=O)N1CCC[C@H]1C(N)=O)C(C)C [hCT]
- Emax [1]: 30 ± 4%
- Emax [2]: 79 ± 6%
- Emax [3]: 67 ± 6%
- Emax [4]: 68 ± 9%
- Emax [5]: 110 ± 9%

SMILES: CSCC[C@H](NC(=O)CNC(=O)[C@H](CO)NC(=O)[C@H](Cc1ccccc1)NC(=O)[C@H](CCCNC(=N)N)NC(=O)[C@H](Cc1c[nH]cn1)NC(=O)[C@H](Cc1ccccc1)NC(=O)[C@H](CC(N)=O)NC(=O)[C@H](CC(N)=O)NC(=O)[C@H](CC(C)C)NC(=O)[C@H](CC(N)=O)NC(=O)[C@H](CCCNC(=N)N)NC(=O)[C@H](Cc1c[nH]c2ccccc12)NC(=O)[C@H](Cc1ccc(O)cc1)NC(=O)[C@H](C)NC(=O)[C@H](CO)NC(=O)[C@H](CC(C)C)NC(=O)[C@@H](NC(=O)[C@@H]1CSSC[C@H](N)C(=O)N[C@@H](CO)C(=O)N[C@@H](CC(N)=O)C(=O)N[C@@H](CC(C)C)C(=O)N[C@@H](CO)C(=O)N[C@@H]([C@@H](C)O)C(=O)N1)C(C)C)C(=O)NCC(=O)N[C@@H](Cc1ccccc1)C(=O)NCC(=O)N1CCC[C@H]1C(=O)N[C@@H](CCC(=O)O)C(=O)N[C@H](C(=O)N1CCC[C@H]1C(N)=O)[C@@H](C)O [pCT] (H-CSNLSTCVLSAYWRNLNNFHRFSGMGFGPETP-NH2; disulfide 1-7)
- EC50 [1, 6]: 2.24 nM
- Emax [1]: 52 ± 4%
- EC50 [2, 6]: 2.45 nM
- Emax [2]: 100 ± 6%
- EC50 [3, 6]: 6.17 nM
- Emax [3]: 100 ± 5%
- EC50 [4, 6]: 2.88 nM
- Emax [4]: 44 ± 5%
- EC50 [5, 6]: 12.3 nM
- Emax [5]: 106 ± 6%
